Measured values: publication PMC6820371, “Terbium-161 for PSMA-targeted radionuclide therapy of prostate cancer” (European Journal of Nuclear Medicine and Molecular Imaging, 2019)
Marks after values point to notes of the source that are not given here.

Columns and labels:
PC-3 PIP tumor cells = experiment: Cell viability assay (MTT assay); type: cell-based, human
Description: The detailed methods of these studies, including dosimetric calculations, are described in the Supplementary material. The results were analyzed for statistical significance by a two-way ANOVA with Sidak’s multiple comparison post-test using Graph Pad Prism (version 7).
Methods: Tumor cell viability was assessed using a 3-(4,5-dimethylthiazol-2-yl)-2,5-diphenyltetrazolium bromide (MTT) assay as described by Mosmann. PC-3 PIP tumor cells (2500 cells in 200 μL RPMI medium with supplements) were seeded in 96-well plates and incubated overnight (37°C; 5% CO2) to allow adhesion of the tumor cells. The supernatants were removed and the tumor cells were washed once with 200 μL PBS. Afterwards, the tumor cells were incubated in 200 μL RPMI medium (without supplements) containing ^161Tb-PSMA-617 or ^177Lu-PSMA-617 (0.01‒20 MBq/mL), respectively, or just RPMI medium without addition of radioligands. PSMA-negative PC-3 flu tumor cells were also treated with these radioligands under the same experimental conditions using the same concentration range. Additional cell viability assays were performed with PC-3 PIP tumor cells incubated with RPMI medium (without supplements) containing ^161Tb-diethylenetriaminepentaacetic acid (DPTA) or ^177Lu-DTPA (0.01 – 20 MBq/mL). After 4 h incubation (37 °C; 5% CO2), the tumor cells were washed once with 200 μL PBS, followed by the addition of 200 μL of RPMI medium (with supplements) to each well. The tumor cells were left to grow for 6 days under standard cell culture conditions (37 °C, 5% CO2). At Day 6 after treatment, MTT reagent (5 mg/mL in PBS, 30 μL per well) was added to each well to allow the formation of dark-violet formazan crystals within 4 h incubation. The crystals were dissolved by the addition of dimethyl sulfoxide to determine the absorbance at 560 nm using a microplate reader (Victor X3, Perkin Elmer). Cell viability was quantified by expressing the absorbance of the test samples as percentage of the absorbance of control (untreated) cell samples which was set to 100%. Statistical analysis was performed using a two-way ANOVA with Sidak’s multiple comparison post-test in Graph Pad Prism (version 7).

[1] = system: PSMA-negative PC-3 flu tumor cells; experiment: Cell survival assay (clonogenic assay); type: cell-based; conditions: 1 MBq/mL and higher, p > 0.05
[2] = system: PC-3 PIP tumor-bearing mice; experiment: Therapy study - assessment of potential early side effects; type: in vivo; design: key to Histology: Bone marrow sternum / Histology: Sternum (bone) / Histology: Bone marrow femur / Histology: Femur and tibia (bone) / Histology: Salivary glands / Histology: Mandibular lymph node: NHAIR: no histological abnormality is recognized; IC: increased cellularity, myeloid lineage; SH: Sinus histiocytosis; LH: lymphoid hyperplasia; 1: minimal severity; 2: mild; 3: moderate; 4: marked; 5: severe; conditions: for ALB (blood plasma) / ALP (blood plasma) / BUN (blood plasma) / CRE (blood plasma) / TBIL (blood plasma): at euthanasia; for Brain mass / Kidney mass / Liver mass / Spleen Mass: day of euthanasia; for Histology: Bone marrow femur / Histology: Bone marrow sternum / Histology: Femur and tibia (bone) / Histology: Mandibular lymph node / Histology: Salivary glands / Histology: Sternum (bone): individual mice M1-M6
Description: Potential early side-effects related to the exposure to radiation were evaluated by the assessment of absolute and relative (to body and to brain) organ weights, selected clinical chemistry plasma parameters including creatinine (CRE), blood urea nitrogen (BUN), alkaline phosphatase (ALP), total bilirubin (TBIL), and albumin (ALB), as well as via histological analysis of bone marrow and salivary glands. The data were analyzed for statistical significance (Supplementary material).
Body and organ mass and mass ratios: As a measure to identify undesired side effects, body weights were compared at the day when the first control mouse had to be euthanized (Day 18; Table S3). The relative body weight (RBW) and the relative tumor volume (RTV) were calculated as stated in the main manuscript. Kidneys, liver, spleen and brain were collected and weighed at the day of euthanasia when an endpoint was reached or at the end of the study at Day 84 (Table S3). The organ mass-to-body mass and the organ-mass-to-brain-mass ratios were calculated for kidneys, liver and spleen (Table S4). The average organ masses of mice from each group were analyzed for significance using a one-way ANOVA test with a Tukey’s post correction (GraphPad Prism software, version 7). A p-value of <0.05 was considered as statistically significant.
Blood plasma parameters: Blood was taken from the retrobulbar vein immediately before euthanasia for determination of blood plasma parameters. The values of creatinine (CRE), blood urea nitrogen (BUN), alkaline phosphatase (ALP), total bilirubin (BIL) and albumin (ALB) were determined in the plasma after centrifugation of the blood using a dry chemistry analyzer (DRI-CHEM 4000i, FUJIFILM, Japan) (Table S5). The average blood plasma parameters of each group were analyzed for significance using a one-way ANOVA test with a Tukey’s post correction (GraphPad Prism software, version 7). A p-value of <0.05 was considered as statistically significant.
Necropsy, tissue processing and histological examination: After euthanasia and exsanguination, mice were dissected and, after a full macroscopic examination, sternum, femur and salivary glands were quickly removed and fixed in 4% neutral-buffered formalin (Formafix, Hittnau, Switzerland). After adequate fixation, femoral and sternal bones were decalcified in 10% ethylenediamine tetraacetic acid over a period of 5 days. Both bones and the salivary glands were subsequently trimmed, dehydrated through graded alcohols and routinely paraffin wax embedded. Sections (3–5 µm) were prepared, mounted on glass slides and routinely stained with hematoxylin and eosin (HE). Microscopic findings in the HE-stained livers were classified with standard pathological nomenclature and grading system.

O=C([O-])CN1CCN(CC(=O)[O-])CCN(CC(=O)NCC2CCC(C(=O)NC(Cc3ccc4ccccc4c3)C(=O)NCCCCC(NC(=O)NC(CCC(=O)O)C(=O)O)C(=O)O)CC2)CCN(CC(=O)[O-])CC1.[161Tb+3] (centres unmarked) [^161Tb-PSMA-617]
Reduction of tumor-cell viability compared to ^177Lu-PSMA-617 (PC-3 PIP tumor cells; 0.1–10 MBq/mL, p < 0.05): significantly more effective | Effectiveness in vitro relative to ^177Lu-PSMA-617 (PC-3 PIP tumor cells; viability and survival of PC-3 PIP tumor cells): up to 3 fold | Effect on survival of PC-3 flu cells compared to ^177Lu-PSMA-617 [1]: tendency of a more pronounced effect | Body weight at Day 0 ([2]; 5.0 MBq): 17 ± 1.2 g | Body weight at Day 18 ([2]; 5.0 MBq): 17 ± 1.2 g | Body weight at Day of euthanasia ([2]; 5.0 MBq): 15 ± 1.7 g | Body weight over time ([2]; 5.0 MBq): body weight loss over time | Kidney-to-body ratio ([2]; 5.0 MBq): 0.014 ± 0.001 | Kidney-to-brain ratio ([2]; 5.0 MBq): 0.50 ± 0.11 | Liver-to-body ratios ([2]; 5.0 MBq): 0.048 ± 0.010 | Liver-to-brain ratios ([2]; 5.0 MBq): 1.8 ± 0.71 | Spleen-to-body ratios ([2]; 5.0 MBq): 0.004 ± 0.001 | Spleen-to-brain ratios ([2]; 5.0 MBq): 0.16 ± 0.05 | Undesired side-effects ([2]; 5.0 MBq and 10 MBq): no signs of undesired side-effects were detectable | ALB (blood plasma) ([2]; 5.0 MBq): 21 ± 1 g/L | ALP (blood plasma) ([2]; 5.0 MBq): 44 ± 1 U/L | BUN (blood plasma) ([2]; 5.0 MBq): 8.3 ± 0.50 mmol/L | CRE (blood plasma) ([2]; 5.0 MBq): <18 µmol/L | TBIL (blood plasma) ([2]; 5.0 MBq): 4 ± 1 µmol/L | Brain mass ([2]; 5.0 MBq): 371 ± 15 mg | Kidney mass ([2]; 5.0 MBq): 208 ± 19 mg | Liver mass ([2]; 5.0 MBq): 737 ± 143 mg | Spleen Mass ([2]; 5.0 MBq): 63 ± 13 mg | Histology: Bone marrow femur ([2]; 5 MBq): NHAIR | Histology: Bone marrow sternum ([2]; 5 MBq): NHAIR | Histology: Femur and tibia (bone) ([2]; 5 MBq): NHAIR | Histology: Mandibular lymph node ([2]; 5 MBq): NHAIR and SH 1 and LH 1 | Histology: Salivary glands ([2]; 5 MBq): NHAIR | Histology: Sternum (bone) ([2]; 5 MBq): NHAIR | Histological changes in the bone marrow and the salivary glands attributable to application ([2]; 5.0 and 10 MBq/mouse): no histological changes | Blood plasma parameters compared to control group ([2]; 5.0 and 10 MBq/mouse, p>0.05): did not show any significant differences | Body weight at Day 0 ([2]; 10 MBq): 18 ± 1.0*^3) g | Body weight at Day 18 ([2]; 10 MBq): 19 ± 1.2*^4) g | Body weight at Day of euthanasia ([2]; 10 MBq): 19 ± 1.6*^5) g | Body weight over time ([2]; 10 MBq): remained stable | Kidney-to-body ratio ([2]; 10 MBq): 0.014 ± 0.001 | Kidney-to-brain ratio ([2]; 10 MBq): 0.64 ± 0.09^*2) | Liver-to-body ratios ([2]; 10 MBq): 0.054 ± 0.002 | Liver-to-brain ratios ([2]; 10 MBq): 2.5 ± 0.87 | Spleen-to-body ratios ([2]; 10 MBq): 0.005 ± 0.001 | Spleen-to-brain ratios ([2]; 10 MBq): 0.23 ± 0.05^*3) | ALB (blood plasma) ([2]; 10 MBq): 19 ± 1 g/L | ALP (blood plasma) ([2]; 10 MBq): 54 ±15 U/L | BUN (blood plasma) ([2]; 10 MBq): 7.8 ± 1.3 mmol/L | CRE (blood plasma) ([2]; 10 MBq): <18 µmol/L | TBIL (blood plasma) ([2]; 10 MBq): 4 ± 1 µmol/L | Brain mass ([2]; 10 MBq): 402 ± 18 mg | Kidney mass ([2]; 10 MBq): 258 ± 41*^5) mg | Liver mass ([2]; 10 MBq): 994 ± 65*^5) mg | Spleen Mass ([2]; 10 MBq): 92 ± 22*^5) mg | Histology: Bone marrow femur ([2]; 10 MBq): NHAIR | Histology: Bone marrow sternum ([2]; 10 MBq): IC 1 and NHAIR | Histology: Femur and tibia (bone) ([2]; 10 MBq): NHAIR | Histology: Mandibular lymph node ([2]; 10 MBq): SH 2 LH 1 and SH 1 and LH 1 and NHAIR | Histology: Salivary glands ([2]; 10 MBq): NHAIR | Histology: Sternum (bone) ([2]; 10 MBq): NHAIR
